According to patent US20080032918A1, “Mast cell-derived renin” (Cornell Research Foundation, Inc., priority 2003, published 2008):
pIC50: −log10 of the molar value. Entries after “also recorded” stand apart in the source; their conditions may differ.

What was measured:
[1] = tested on: cardiac mast cells; experiment: renin in coronary effluent of normoxic Langendorff-perfused hearts challenged with 48/80; parameters: species or system guinea pig; details: lodoxamide 10 μM or BILA 2157 100 nM prior to 48/80
Procedure: Renin was measured in the coronary effluent of normoxic Langendorff-perfused guinea-pig hearts, ex vivo. […] When hearts were perfused with the mast-cell stabilizer lodoxamide (FIG. 9B) or the renin inhibitor BILA2157 prior to 48/80 challenge (FIGS. 9A and B), renin overflow was abolished.

[2] = tested on: isolated normoxic guinea pig hearts; experiment: chronotropic response and norepinephrine overflow in normoxic isolated hearts challenged with 48/80; details: BILA 2157 100 nM, lodoxamide 30 μM
Source text: These findings indicate that cardiac mast cells are capable of releasing active renin, which then leads to local formation of ANG II causing norepinephrine exocytosis.

[3] = tested on: cardiac sympathetic nerve endings; experiment: norepinephrine release from isolated cardiac sympathetic nerve endings incubated with angiotensinogen; format: cell-based, guinea pig; details: nerve endings incubated with BILA2157 10 nM, enalaprilat 30 nM or EXP 3174 10 nM
Source text: Preparation ofguinea-pig sympathetic nerve endings: Cardiac sympathetic nerve endings were isolated from guinea-pig hearts as previously described (Seyedi et al., J Pharmacol Exp Ther 290: 656-663, 1999; Seyedi et al., Circ. Res. 81: 774-784, 1997). Spontaneously beating hearts were isolated as previously described by the inventors (Hatta et al., J. Pharmacol. Exp. Ther. 288: 919-927, 1999; Park et al., Circ. Res. 71: 992-1001, 1992). Briefly, male Hartley guinea pigs were anesthetized with CO2 vapor and then exsanguinated. Hearts were perfused through the aorta for 15 min at constant pressure with Ringer's solution at 37° C. (Park et al., Circ. Res. 71: 992-1001, 1992) to exclude blood from the coronary circulation. Hearts were minced in 0.32 M sucrose containing 1 mM EGTA. The minced tissue was then digested with 75 mg collagenase per 10 ml HBS per gm for 1 hr at 37° C. After low speed centrifugation the resulting pellet were suspended in 10 volumes of 0.32 M sucrose and homogenized with a Teflon/glass homogenizer. The homogenate was centrifuged at 650g for 10 min, the pellet was re-homogenized and the homogenate was centrifuged again. The pellet containing cellular debris was discarded, the supernatants from the last two spins were combined, the pooled supernatant was equally subdivided into 4 to 8 tubes and re-centrifuged for 20 min at 20,000g at 4° C. This pellet contains cardiac sympathetic nerve endings. The pellet was resuspended either in HEPES-buffered saline (HBS; 500 μl, normoxic conditions) or in glucose-free HBS, which contained the reducing agent sodium dithionite (500 μl, ischemic conditions), and incubated in the absence or presence of angiotensinogen (1 hr) or other agents for 20 min at 37° C. prior to ischemia (see below). Each suspension was used only once as an independent sample.
Norepinephrine assay: Coronary effluent and synaptosome supernatant will be assayed for NE by HPLC with electrochemical detection (ESA). […]

[4] = target: T1, renin (Homo sapiens, UniProt P00797); details: specific renin inhibitor; cited from earlier work
T1 sequence (P00797 67-406): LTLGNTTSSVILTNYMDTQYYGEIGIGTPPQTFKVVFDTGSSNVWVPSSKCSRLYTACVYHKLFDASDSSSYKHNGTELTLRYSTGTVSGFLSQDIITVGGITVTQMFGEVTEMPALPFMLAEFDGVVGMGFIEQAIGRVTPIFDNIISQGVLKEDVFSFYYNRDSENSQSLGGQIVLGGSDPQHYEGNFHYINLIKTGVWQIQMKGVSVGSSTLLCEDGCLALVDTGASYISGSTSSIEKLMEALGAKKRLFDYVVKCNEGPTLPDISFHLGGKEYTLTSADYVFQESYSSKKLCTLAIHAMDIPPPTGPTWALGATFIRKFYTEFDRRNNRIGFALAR

[5] = tested on: guinea-pig hearts; experiment: ischemia-reperfusion in guinea pig hearts ex vivo (Langendorff); details: 20-min global ischemia, 45-min reperfusion, lodoxamide 10 μM; for ventricular fibrillation during reperfusion: BILA2157 100 nM; for renin overflow into coronary effluent on reperfusion: BILA 2157 100 nM
Procedure: Ischemia-reperfusion in guinea pig hearts ex vivo: Guinea-pig hearts will be perfused for 30 min prior to ischemia. Inamura et al., Circ. Res. 78: 475-481 (1996). Normothermic 20-min global ischemia will be induced by complete cessation of coronary perfusion, followed by 45-min reperfusion. Coronary effluent will be assayed for renin activity and NE.
Guinea-pig hearts were perfused ex vivo at constant pressure in a Langendorff apparatus and subjected to 20-min. stop-flow global ischemia, followed by 45-min. reperfusion (Hatta, E., R. Maruyama, S. J. Marshall, M. Imamura, and R. Levi. Bradykinin promotes ischemic norepinephrine release in guinea pig and human hearts. J. Pharmacol. Exp. Ther. 288: 919-927 (1999)). Surface ECG and coronary flow were continuously monitored; the coronary effluent was assayed for renin activity (i.e., ANG I generated as described herein). There was no detectable renin in the coronary effluent prior to ischemia. With reperfusion, there was significant renin overflow into the coronary effluent accompanied by ventricular fibrillation (VF) (FIG. 12).
Traces in the left panels were recorded at the end of the equilibration period prior to ischemia, showing normal sinus rhythm.

[6] = target: T2, mast-cell-derived renin (Homo sapiens, UniProt P00797); experiment: renin activity (ANG I formed, RIA) of HMC-1 cell releasate incubated with human angiotensinogen; format: biochemical; details: BILA2157 100 nM
T2 construct: endogenous in cells; host or cells: HMC-1 human mastocytoma cell line, degranulated with compound 48/80
T2 sequence (P00797 67-406): T1 sequence (P00797 67-406)
Procedure: Renin activity: Pooled confluent flasks of HMC-1 cells, or individual wells of HMC-1 cells, were pelleted and resuspended in HEPES buffer (pH 5.7, 1 mM EDTA) containing the mast-cell degranulating agent compound 48/80 (100 μg/ml or 20 μg/ml; Sigma). After 30 min, cells were spun down and the renin-containing supernatant was incubated with increasing concentrations of human angiotensinogen (Sigma). Renin activity (ANG I formed) was then determined using a GammaCoat Plasma Renin Activity 1251 Radioimmunoassay kit (DiaSorin, Mass.). The selective renin inhibitor BILA2157 was from Boehringer Ingelheim.
The cell releasate was incubated with increasing concentrations of angiotensinogen and then assayed for ANG I formed (i.e. renin activity) by RIA. A concentration-response curve for ANG I formation as a function of angiotensinogen concentration was generated on the HMC-1 releasate. The amount of ANG I formed increased with angiotensinogen concentration. […]
FIG. 4F illustrates that mast-cell-derived renin can be synthesized in mast cells. Releasates were analyzed from the same population of HMC-1 exposed to compound 48/80 (20 μg/ml) 48 hours apart, and analyzed for BILA2157-sensitive renin activity.

SMILES: CC(C)C[C@H](O)[C@H](O)[C@H](CC1CCCCC1)NC(=O)[C@@H](CC(=O)N(CC(=O)N(C)CCc1ccccn1)CC1CCCCC1)Cc1csc(N)n1 [BILA2157]
- renin overflow into coronary effluent after 48/80 challenge [1]: abolished
- renin overflow into coronary effluent after 48/80 challenge ([1]; listed as BILA 2157): markedly diminished
- chronotropic response to 48/80 [2]: markedly abbreviated
- chronotropic response to 48/80 ([2]; listed as BILA 2157): diminishes the chronotropic response
- effect on 48/80 potentiation of norepinephrine release [3]: abolished
- pIC50 [4]: 9.00
- ventricular fibrillation during reperfusion [5]: no ventricular fibrillation; also recorded: ventricular fibrillation did not occur
- ventricular fibrillation during reperfusion ([5]; listed as BILA 2157): prevent ventricular fibrillation; also recorded: essentially no ventricular fibrillation
- renin overflow into coronary effluent on reperfusion [5]: abrogated
- renin overflow into coronary effluent on reperfusion ([5]; listed as BILA 2157): prevented renin release
- share of ANG I activity due to BILA2157-sensitive renin ([6]; 240 nM angiotensinogen, initially and 48 hours after degranulation with 48/80): about 70%
- share of total ANG I formed that originates from renin (BILA2157-sensitive) ([6]; increasing angiotensinogen concentrations): ~70%
